The text below walks through data of patent EP1243271A1, “NASAL DROPS CONTAINING FUSED PYRIDAZINE DERIVATIVES” (Takeda Chemical Industries, Ltd., priority 1999, dated 2001).

Counter-ions that a name gives are not always drawn.

For orientation: inhibition in vivo means the drop in the measured response relative to a control, in per cent. A low value points to little suppression.

One experiment has as its system Guinea Pig Eosinophils. Kind of experiment: Suppression of LTB4-induced chemotactic reaction of guinea pig eosinophils. The conditions noted are these: Cavia porcellus, Eosinophil, test drug 1 × 10^-5 M, LTB4 10^-8 M, read-out: Suppression Rate (%). The class given is cell-based, guinea pigs. Here is the method:
To male Hartley guinea pigs, 2 ml of equine serum (Bio-Whittaker, Inc.) was intraperitoneally administered once weekly for 8 consecutive weeks. At 48 hours after final administration, 75 ml of physiological saline was intraperitoneally injected, after which the recovered solution was centrifuged at 400 × g for 5 minutes. The resulting sediment was suspended in 5 ml of Percoll solution (density d=1.07) and layered on top of the discontinuous density layer of Percoll solution (density d=1.112, 5 ml; d=1.095, 10 ml; d=1.090, 10 ml; d=1.085, 5 ml), followed by centrifugation at 1,000 × g for 25 minutes (20°C). The cell layer formed at the interface between density d= 1.112 and density d=1.095 was collected. Erythrocytes present in the collected cell sediment were removed by hypotonic treatment (suspended in water for […]).
The cell sediment was washed 3 times with Hanks' solution containing 10 mM Hepes (Dojin Kagaku) (Hanks-Hepes) and suspended in a Hanks-Hepes solution containing 2% human serum albumin (Wako Pure Chemical Industry or Sigma) (Hanks-Hepes-HSA) to a concentration of 5.56×10^6 cells/ml. Eosinophil purity was 90%, viability was over 98%.
To a 24-well culture dish, which serves as a lower chamber, 600 µl of Hanks-Hepes-HSA solution containing LTB4 (final concentration 10^-8 M, Cascade Biochemical Ltd.), was transferred, followed by incubation at 37°C for 30 minutes in a carbon dioxide incubator. Separately, 200 µl of eosinophil suspension (5×10^6 cells/ml), previously incubated at 37°C for 15 minutes, was added to Chemotaxicell (polycarbonate membrane, pore size 3 µm, thickness 10 µm), which serves as an upper chamber, after the upper chamber was attached to the 24-well culture dish. After 2 hours of reaction in the carbon dioxide incubator, the Chemotaxicell was removed; 60 µl of 2% (w/v) EDTA solution in physiological saline was added to the liquid in the lower chamber. After ice-cooling, the cells migrating into the inner solution of the lower chamber were counted using a blood cell counter [Coulter Counter (trade name)]. The test drug, dissolved in N,N-dimethylformamide (DMF), was added to both the upper and lower chambers to a final concentration of 10^-5 M. Equation 2 Chemotactic reaction suppression rate = [1-(number of migrating cells in the presence of drug/number of migrating cells in the absence of drug)] × 100 [formula] suppression rates of LTB4 -induced chemotactic reaction by test drug (1 × 10^-5 M concentration) were calculated.
`c1ccc(C(OC2CCN(CCCOc3ccc4ncnn4n3)CC2)c2ccccc2)cc1` [Reference Example B2, 6-[3-[4-(diphenylmethoxy)piperidino]propoxy]-[1,2,4]triazolo[1,5-b]pyridazine fumarate]: the inhibition at 10 µM stood at 54%.
Take `c1ccc(C(OC2CCN(CCCNc3ccc4ncnn4n3)CC2)c2ccccc2)cc1` [Reference Example B6, 6-[3-[4-(diphenylmethoxy)piperidino]-propylamino][1,2,4]triazolo[1,5-b]pyridazine]: the inhibition at 10 µM was determined as 64%.
As for `Cc1nc2ccc(NCCCN3CCC(OC(c4ccccc4)c4ccccc4)CC3)nn2n1` [Reference Example B20, 6-[3-[4-(diphenylmethoxy)piperidino]-propylamino]-2-methyl[1,2,4]triazolo[1,5-b]pyridazine], the inhibition at 10 µM turned out to be 61%.
As to `CC(C)(C)c1nc2ccc(NCCCN3CCC(OC(c4ccccc4)c4ccccc4)CC3)nn2n1` [Reference Example B34, 2-tert-butyl-6-[3-[4-(diphenylmethoxy)-piperidino]propylamino][1,2,4]triazolo[1,5-b]pyridazine fumarate], the inhibition at 10 µM came to 50%.
Same read-out and setting: as for `c1ccc(C(OC2CCN(CCCCCCNc3ccc4ncnn4n3)CC2)c2ccccc2)cc1` [Reference Example B35, 6-[6-[4-(diphenylmethoxy)piperidino]-hexylamino][1,2,4]triazolo[1,5-b]pyridazine], the figure is 52%; as for `COC(=O)c1nc2ccc(NCCCN3CCC(OC(c4ccccc4)c4ccccc4)CC3)nn2n1` [Reference Example B36, methyl 6-[3-[4-(diphenylmethoxy)piperidino]-propylamino][1,2,4]triazolo[1,5-b]pyridazine-2-carboxylate], 64%; as for `Cc1cc2ncnn2nc1OCCOCCN1CCN(C(c2ccccc2)c2ccccc2)CC1` [Reference Example B47, 6-[2-[2-[4-(diphenylmethyl)-1-piperazinyl]-ethoxy]ethoxy]-7-methyl[1,2,4]triazolo[1,5-b]pyridazine], 54%.
On to `Cc1cc2ncnn2nc1OCCCCCCN1CCN(C(c2ccccc2)c2ccccc2)CC1` [Reference Example B51, 6-[6-[4-(diphenylmethyl)-1-piperazinyl]hexyloxy]-7-methyl[1,2,4]triazolo[1,5-b]pyridazine dihydrochloride], for which the inhibition at 10 µM was found to be 80%.
As to `CC(C)c1cc2ncnn2nc1SCCOCCN1CCN(C(c2ccccc2)c2ccccc2)CC1` [Reference Example B59, 6-[2-[2-[4-(diphenylmethyl)-1-piperazinyl]-ethoxy]ethylthio]-7-isopropyl[1,2,4]triazolo[1,5-b]pyridazine dihydrochloride], the inhibition at 10 µM is 54%.
Take `CC(C)c1cc2ncnn2nc1OCCOCCN1CCN(C(c2ccccc2)c2ccccc2)CC1` [Reference Example B61, 6-[2-[2-[4-(diphenylmethyl)-1-piperazinyl]-ethoxy]ethoxy]-7-isopropyl[1,2,4]triazolo[1,5-b]pyridazine]: the inhibition at 10 µM was determined as 50%.
`CC(C)(C)c1cc2ncnn2nc1OCCOCCN1CCN(C(c2ccccc2)c2ccccc2)CC1` [Reference Example B62, 7-tert-butyl-6-[2-[2-[4-(diphenylmethyl)-1-piperazinyl]ethoxy]ethoxy][1,2,4]triazolo[1,5-b]pyridazine dihydrochloride]: the inhibition at 10 µM came out at 52%.

For a further experiment, the system named is Male Hartley guinea pigs. Kind of experiment: Effect on histamine-induced increases in microvascular permeability in skin in guinea pigs. The class given is in vivo. The following applies: Cavia porcellus; 3 mg/kg oral administration 1 hour before histamine; guinea pig skin. How it is done:
Male Hartley guinea pigs weighing about 500 g were used. After the dorsal hair was shaved under ether anesthesia, 1 ml of a 2.5% pontamine sky blue solution was injected intravenously, and then 0.1 ml of histamine at 3 µg/ml was injected intradermally into 2 sites (left and right) in the back. Thirty minutes after the injection of histamine, animals were fainted by knocking in the head, decapitated and killed by bleeding, after which the skin of the back was removed. The long and short diameters (mm) of each blue spot were measured and multiplied; the mean product was taken as the vascular permeability index. Test compounds were suspended in a 5% gum arabic solution and orally administered in a volume of 0.2 ml/100 g body weight at 1 hour before histamine administration. Animals in the control group received the same volume of a 5% gum arabic solution. Equation 1 Inhibition (%) of histamine-induced increases in microvascular permeability in skin = 100 × (1-vascular permeability index in the presence of drug/vascular permeability index in control group) [formula]
`c1ccc(C(OC2CCN(CCCNc3ccc4ncnn4n3)CC2)c2ccccc2)cc1` [Reference Example B6, 6-[3-[4-(diphenylmethoxy)piperidino]-propylamino][1,2,4]triazolo[1,5-b]pyridazine] displayed an inhibition in vivo at 3 mg/kg of 91%.
Consider `c1ccc(C(OC2CCN(CCCCNc3ccc4ncnn4n3)CC2)c2ccccc2)cc1` [Reference Example B12, 6-[4-[4-(diphenylmethoxy)piperidino]-butylamino][1,2,4]triazolo[1,5-b]pyridazine], for which the inhibition in vivo at 3 mg/kg turned out to be 91%.
In turn, `O=C(CCN1CCC(OC(c2ccccc2)c2ccccc2)CC1)Nc1ccc2ncnn2n1` [Reference Example B18, 3-[4-(diphenylmethoxy)piperidino]-N-([1,2,4]triazolo[1,5-b]pyridazin-6-yl)propionamide] showed an inhibition in vivo at 3 mg/kg of 91%.
Consider `Cc1nc2ccc(NCCCN3CCC(OC(c4ccccc4)c4ccccc4)CC3)nn2n1` [Reference Example B20, 6-[3-[4-(diphenylmethoxy)piperidino]-propylamino]-2-methyl[1,2,4]triazolo[1,5-b]pyridazine], for which the inhibition in vivo at 3 mg/kg worked out at 92%.
Turning to `Cc1nc2ccc(OCCCN3CCC(OC(c4ccccc4)c4ccccc4)CC3)nn2n1` [Reference Example B21, 6-[3-[4-(diphenylmethoxy)piperidino]propoxy]-2-methyl[1,2,4]triazolo[1,5-b]pyridazine], at 3 mg/kg the inhibition in vivo was 91%.
Consider `c1ccc(C(c2ccccc2)N2CCN(CCCCCCNc3ccc4ncnn4n3)CC2)cc1` [Reference Example B37, 6-[6-[4-(diphenylmethyl)-1-piperazinyl]-hexylamino][1,2,4]triazolo[1,5-b]pyridazine], for which testing at 3 mg/kg gave an inhibition in vivo of 92%.
In turn, `COc1cn2nc(OCCCN3CCC(OC(c4ccccc4)c4ccccc4)CC3)ccc2n1` [Reference Example B41, 6-[3-[4-(diphenylmethoxy)piperidino]propoxy]-2-methoxyimidazo[1,2-b]pyridazine] displayed an inhibition in vivo at 3 mg/kg of 92%.
In turn, `CC(C)(C(=O)O)c1cn2nc(OCCCN3CCC(OC(c4ccccc4)c4ccccc4)CC3)ccc2n1` [Reference Example B45, 2-[6-[3-[4-(diphenylmethoxy)piperidino]-propoxy]imidazo[1,2-b]pyridazin-2-yl]-2-methylpropionic acid] returned an inhibition in vivo at 3 mg/kg of 91%.
